Results taken from PMC10324058 (ACS Omega, 2023).

Target: α-glucosidase enzyme (Saccharomyces cerevisiae, UniProt P53341)
Experiment: Kinetic study against α-glucosidase
Format: biochemical, S. cerevisiae

Chain of α-glucosidase enzyme (P53341 whole entry): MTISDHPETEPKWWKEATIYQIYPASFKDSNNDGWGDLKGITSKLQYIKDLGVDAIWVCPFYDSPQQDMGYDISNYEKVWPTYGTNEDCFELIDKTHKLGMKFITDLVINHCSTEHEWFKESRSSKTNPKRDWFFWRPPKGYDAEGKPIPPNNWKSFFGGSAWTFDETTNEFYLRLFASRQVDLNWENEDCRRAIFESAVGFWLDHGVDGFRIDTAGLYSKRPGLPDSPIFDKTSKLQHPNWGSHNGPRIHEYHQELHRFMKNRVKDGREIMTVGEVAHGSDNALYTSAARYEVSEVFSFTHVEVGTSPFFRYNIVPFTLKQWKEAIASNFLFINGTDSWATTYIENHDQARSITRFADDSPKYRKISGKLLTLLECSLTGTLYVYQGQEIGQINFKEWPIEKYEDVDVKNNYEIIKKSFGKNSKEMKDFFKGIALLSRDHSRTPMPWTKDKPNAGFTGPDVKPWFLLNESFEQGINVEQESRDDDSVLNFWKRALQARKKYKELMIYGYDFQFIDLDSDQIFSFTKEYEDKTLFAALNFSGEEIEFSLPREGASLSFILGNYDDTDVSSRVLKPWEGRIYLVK

- Ki: 1300 nM
- inhibition mode (Lineweaver–Burk plot: Km increased, Vmax unchanged): competitive inhibitor
Compound: N#CC1=C(N)Oc2c(c(=O)[nH]c3ccccc23)C1c1cccc(OCc2cn(Cc3ccccc3)nn2)c1 (centres unmarked) [8k, 2-Amino-4-(3-((1-benzyl-1H-1,2,3-triazol-4-yl)methoxy)phenyl)-5-oxo-5,6-dihydro-4H-pyrano[3,2-c]quinoline-3-carbonitrile]
